In PubChem BioAssay (NCI):
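How tested: cells in 96-well plates exposed to compound for 48 hours at five concentrations. TGI marks complete inhibition of growth.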

Tests used:
Test in all cases: inhibition of tumour cell growth, NCI panel, 48 h
786-0 renal = test system: 786-0 renal
A549 NSCLC = test system: A549 NSCLC
ACHN renal = test system: ACHN renal
BT-549 breast = test system: BT-549 breast
CAKI-1 renal = test system: CAKI-1 renal
COLO 205 colon = test system: COLO 205 colon
DU-145 prostate = test system: DU-145 prostate
EKVX NSCLC = test system: EKVX NSCLC
HCC-2998 colon = test system: HCC-2998 colon
HCT-116 colon = test system: HCT-116 colon
HCT-15 colon = test system: HCT-15 colon
HOP-62 NSCLC = test system: HOP-62 NSCLC
HS 578T breast = test system: HS 578T breast
IGROV1 ovarian = test system: IGROV1 ovarian
KM12 colon = test system: KM12 colon
LOX IMVI melanoma = test system: LOX IMVI melanoma
M14 melanoma = test system: M14 melanoma
MALME-3M melanoma = test system: MALME-3M melanoma
MCF7 breast = test system: MCF7 breast
MDA-MB-231 breast = test system: MDA-MB-231 breast
MDA-N = test system: MDA-N
NCI-H226 lung = test system: NCI-H226 lung
NCI-H23 lung = test system: NCI-H23 lung
NCI-H460 lung = test system: NCI-H460 lung
NCI-H522 lung = test system: NCI-H522 lung
NCI/ADR-RES ovarian = test system: NCI/ADR-RES ovarian
OVCAR-3 ovarian = test system: OVCAR-3 ovarian
OVCAR-5 ovarian = test system: OVCAR-5 ovarian
PC-3 prostate = test system: PC-3 prostate
RXF 393 renal = test system: RXF 393 renal
SF-268 CNS = test system: SF-268 CNS
SF-295 CNS = test system: SF-295 CNS
SF-539 CNS = test system: SF-539 CNS
SK-MEL-5 melanoma = test system: SK-MEL-5 melanoma
SK-OV-3 ovarian = test system: SK-OV-3 ovarian
SNB-19 CNS = test system: SNB-19 CNS
TK-10 renal = test system: TK-10 renal
UACC-257 melanoma = test system: UACC-257 melanoma
UACC-62 melanoma = test system: UACC-62 melanoma
UO-31 renal = test system: UO-31 renal
A498 renal = test system: A498 renal
CCRF-CEM leukemia = test system: CCRF-CEM leukemia
HL-60(TB) leukemia = test system: HL-60(TB) leukemia
HOP-92 NSCLC = test system: HOP-92 NSCLC
HT29 colon = test system: HT29 colon
K-562 leukemia = test system: K-562 leukemia
MDA-MB-435 = test system: MDA-MB-435
MOLT-4 leukemia = test system: MOLT-4 leukemia
OVCAR-4 ovarian = test system: OVCAR-4 ovarian
OVCAR-8 ovarian = test system: OVCAR-8 ovarian
SK-MEL-2 melanoma = test system: SK-MEL-2 melanoma
SK-MEL-28 melanoma = test system: SK-MEL-28 melanoma
SN12C renal = test system: SN12C renal
SNB-75 CNS = test system: SNB-75 CNS
SW-620 colon = test system: SW-620 colon
U251 CNS = test system: U251 CNS

NC(N)=NCCC(O)(P(=O)(O)O)P(=O)(O)O gave a TGI (786-0 renal) of over 100 µM, a TGI (A549 NSCLC) of over 100 µM and a TGI (ACHN renal) of over 100 µM. It also gave a TGI (BT-549 breast) of over 100 µM, a TGI (CAKI-1 renal) of over 100 µM and a TGI (COLO 205 colon) of over 100 µM. It also gave a TGI (DU-145 prostate) of over 100 µM, a TGI (EKVX NSCLC) of over 100 µM and a TGI (HCC-2998 colon) of over 100 µM. The TGI (HCT-116 colon) was over 100 µM, the TGI (HCT-15 colon) was over 100 µM and the TGI (HOP-62 NSCLC) was over 100 µM. It also gave a TGI (HS 578T breast) of 57.4 µM, a TGI (IGROV1 ovarian) of over 100 µM and a TGI (KM12 colon) of over 100 µM. For the same compound, the TGI (LOX IMVI melanoma) was over 100 µM, the TGI (M14 melanoma) was over 100 µM and the TGI (MALME-3M melanoma) was over 100 µM. It also gave a TGI (MCF7 breast) of over 100 µM, a TGI (MDA-MB-231 breast) of over 100 µM and a TGI (MDA-N) of over 100 µM. For the same compound, the TGI (NCI-H226 lung) was over 100 µM, the TGI (NCI-H23 lung) was over 100 µM and the TGI (NCI-H460 lung) was over 100 µM. The TGI (NCI-H522 lung) was over 100 µM, the TGI (NCI/ADR-RES ovarian) was over 100 µM and the TGI (OVCAR-3 ovarian) was over 100 µM. It also gave a TGI (OVCAR-5 ovarian) of over 100 µM, a TGI (PC-3 prostate) of over 100 µM and a TGI (RXF 393 renal) of over 100 µM. The TGI (SF-268 CNS) was over 100 µM, the TGI (SF-295 CNS) was over 100 µM and the TGI (SF-539 CNS) was over 100 µM. The TGI (SK-MEL-5 melanoma) was over 100 µM, the TGI (SK-OV-3 ovarian) was over 100 µM and the TGI (SNB-19 CNS) was over 100 µM. For the same compound, the TGI (TK-10 renal) was over 100 µM, the TGI (UACC-257 melanoma) was over 100 µM and the TGI (UACC-62 melanoma) was over 100 µM. The TGI (UO-31 renal) was over 100 µM.
CCN(CC)c1nnc(CCCCCCCCc2nnc(N(CC)CC)o2)o1 showed a TGI (786-0 renal) of over 100 µM, a TGI (A498 renal) of over 100 µM and a TGI (A549 NSCLC) of over 100 µM. It also gave a TGI (ACHN renal) of over 100 µM, a TGI (BT-549 breast) of over 100 µM and a TGI (CAKI-1 renal) of over 100 µM. The TGI (CCRF-CEM leukemia) was over 100 µM, the TGI (COLO 205 colon) was over 100 µM and the TGI (DU-145 prostate) was over 100 µM. It also gave a TGI (EKVX NSCLC) of over 100 µM, a TGI (HCT-116 colon) of over 100 µM and a TGI (HCT-15 colon) of over 100 µM. For the same compound, the TGI (HL-60(TB) leukemia) was over 100 µM, the TGI (HOP-62 NSCLC) was over 100 µM and the TGI (HOP-92 NSCLC) was over 100 µM. The TGI (HT29 colon) was over 100 µM, the TGI (IGROV1 ovarian) was over 100 µM and the TGI (K-562 leukemia) was over 100 µM. For the same compound, the TGI (KM12 colon) was over 100 µM, the TGI (LOX IMVI melanoma) was over 100 µM and the TGI (M14 melanoma) was over 100 µM. It also gave a TGI (MALME-3M melanoma) of over 100 µM, a TGI (MCF7 breast) of over 100 µM and a TGI (MDA-MB-231 breast) of over 100 µM. The TGI (MDA-MB-435) was over 100 µM, the TGI (MDA-N) was over 100 µM and the TGI (MOLT-4 leukemia) was over 100 µM. The TGI (NCI-H226 lung) was over 100 µM, the TGI (NCI-H23 lung) was over 100 µM and the TGI (NCI-H460 lung) was over 100 µM. The TGI (NCI-H522 lung) was over 100 µM, the TGI (NCI/ADR-RES ovarian) was over 100 µM and the TGI (OVCAR-3 ovarian) was over 100 µM. It also gave a TGI (OVCAR-4 ovarian) of over 100 µM, a TGI (OVCAR-5 ovarian) of over 100 µM and a TGI (OVCAR-8 ovarian) of over 100 µM. The TGI (PC-3 prostate) was over 100 µM, the TGI (RXF 393 renal) was over 100 µM and the TGI (SF-268 CNS) was over 100 µM. The TGI (SF-295 CNS) was over 100 µM, the TGI (SF-539 CNS) was over 100 µM and the TGI (SK-MEL-2 melanoma) was over 100 µM. The TGI (SK-MEL-28 melanoma) was over 100 µM, the TGI (SK-MEL-5 melanoma) was over 100 µM and the TGI (SK-OV-3 ovarian) was over 100 µM. The TGI (SN12C renal) was over 100 µM, the TGI (SNB-19 CNS) was over 100 µM and the TGI (SNB-75 CNS) was over 100 µM. The TGI (SW-620 colon) was over 100 µM, the TGI (TK-10 renal) was over 100 µM and the TGI (U251 CNS) was over 100 µM. The TGI (UACC-257 melanoma) was over 100 µM and the TGI (UO-31 renal) was over 100 µM.
